For test [1], the target named is T1, gerbil NK1r (Meriones unguiculatus, UniProt Q5DUB1). Put plainly: Inhibition of NK1 receptor activation, intracellular Ca2+ mobilization (FLIPR) in CHO cells. The test is classed as cell-based. Further details: Full-length PCR was performed using primers #NK1-16 and #NK1-17; expressed in transfected cells. To be noted: pKB ± SD, submaximal (60%) concentration of Substance P. As for the experimental part: (§1) The activity of a compound to inhibit NK1r activation measured as NK1r-mediated increase in intracellular Ca^2+ was assessed by the following procedure:
(§2) Before the FLIPR assay the cells of each 96-well plate were loaded with the Ca^2+-sensitive dye Fluo-3 (TEFLABS 0116) at 4 μM in a loading media consisting of Nut Mix F12 (HAM) with Glutamax I, 22 mM HEPES, 2.5 mM Probenicid (Sigma P-8761) and 0.04% Pluronic F-127 (Sigma P-2443) and kept in the dark for 1 hour in a 37° C. CO2-incubator. The cells were then washed three times in assay buffer (Hanks balanced salt solution (HBSS) containing 20 mM HEPES, 2.5 mM Probenicid and 0.1% BSA) using a multi-channel pipette leaving them in 150 μl at the end of the last wash. Serial dilutions of a test compound in assay buffer (final DMSO concentration kept below 1%) were automatically pipetted by FLIPR (Fluorometric Imaging Plate Reader) into each test well and the fluorescence intensity was recorded (excitation 488 nm and emission 530 nm) by the FLIPR CCD camera for a 2-min pre-incubation period. 50 μl of the Substance P (NK1 specific), NKA (NK2 specific), or Pro-7-NKB (NK3 specific) agonist solution (final concentration equivalent to an approximate EC60 concentration) was then added by FLIPR into each well already containing 200 μl assay buffer (containing the test compound or vehicle) and the fluorescence was continuously monitored for another 2 min. The response was measured as the peak relative fluorescence after agonist addition and IC50s were calculated from ten-point concentration-response curves for each compound. The IC50s were then converted to pKB values with the following formula: KB=IC50/1+(EC60 conc. of agonist used in assay/EC50 agonist) pKB=−log KB Binding Assay for NK1 Receptors

Test [2] deals with T1, gerbil NK1r.
A further test addresses T2, rat NK1r (Rattus norvegicus, UniProt P14600).
T2 construct: expressed in transfected cells
Put plainly: Inhibition of NK1 receptor activation, intracellular Ca2+ mobilization (FLIPR) in CHO cells. The class given is cell-based. To be noted: pKB ± SD, submaximal (60%) concentration of Substance P. As for the experimental part: as §1, §2
Background: Calcium assays in cells follow changes in intracellular calcium, usually with a dye or a luminescent sensor.

The target in test [3] is T3, human NK1r (Homo sapiens, UniProt P25103). Described as above. Further details: expressed in transfected cells. As to conditions: pKB ± SD, submaximal (60%) concentration of Substance P. The class given is cell-based. Here is the method:
as §1
CO2-incubator. The cells were then washed three times in assay buffer (Hanks balanced salt solution (HBSS) containing 20 mM HEPES, 2.5 mM Probenicid and 0.1% BSA) using a multi-channel pipette leaving them in 150 μl at the end of the last wash. […] 50 μl of the Substance P (NK1 specific), NKA (NK2 specific), or Pro-7-NKB (NK3 specific) agonist solution (final concentration equivalent to an approximate EC60 concentration) was then added by FLIPR into each well already containing 200 μl assay buffer (containing the test compound or vehicle) and the fluorescence was continuously monitored for another 2 min. The response was measured as the peak relative fluorescence after agonist addition and IC50s were calculated from ten-point concentration-response curves for each compound. The IC50s were then converted to pKB values with the following formula: KB=IC50/1+(EC60 conc. of agonist used in assay/EC50 agonist) pKB=−log KB Binding Assay for NK1 Receptors

Test [4] addresses T1, gerbil NK1r. Put plainly: Gerbil foot tap (GFT, NK1r-specific test model). The test is classed as in vivo, Mongolian gerbil. Further details: tissue Charles River, Germany (animals); host or cells: living Mongolian gerbil, central nervous system (in vivo). To be noted: from brain homogenate concentration of antagonist at 50% inhibition, used in the Cheng-Prusoff equation. The text has this:
Male Mongolian gerbils (60-80 g) were purchased from Charles River, Germany. On arrival, they were housed in groups of ten, with food and water ad libitum in temperature- and humidity-controlled holding rooms. The animals were allowed at least 7 days to acclimatize to the housing conditions before experiments. Each animal was used only once and killed immediately after the experiment by heart punctuation or a lethal overdose of pentobarbital sodium.
Gerbils were anaesthetized with isoflurane. Potential CNS-permeable NK1 receptor antagonists were administered intraperitoneally, intravenously or subcutaneously.
The gerbils were lightly anaesthetized using isoflurane and a small incision was made in the skin over bregma. 10 pmol of ASMSP, a selective NK1receptor agonist, was administered icv in a volume of 5 μl using a Hamilton syringe with a needle 4 mm long. The wound was clamped shut and the animal was placed in a small plastic cage and allowed to wake up. The cage was placed on a piece of plastic tubing filled with water and connected to a computer via a pressure transducer. The number of hind feet taps was recorded.

In test [5] the target is T3, human NK1r.
Method: Cells were detached with Accutase® solution, harvested in PBS containing 5% FBS by centrifugation, washed twice in PBS and resuspended to a concentration of 1×10^8 cells/ml in Tris-HCl 50 mM, KCl 300 mM, EDTA-N2 10 mM pH 7.4 (4° C.). Cell suspensions were homogenized with a UltraTurrax 30 s 12.000 rpm. The homogenates were centrifuged at 38,000×g (4° C.) and the pellet resuspended in Tris-HCl 50 mM pH 7.4. The homogenization was repeated once and the homogenates were incubated on ice for 45 min. The homogenates were again centrifuged as described above and resuspended in Tris-HCl 50 mM pH 7.4. This centrifugation step was repeated 3 times in total. […]
The membranes were then collected by rapid filtration on Filtermat B(Wallac), presoaked in 0.1% BSA and 0.3% Polyethyleneimine (Sigma P-3143), using a Micro 96 Harvester (Skatron Instruments, Norway). […] Meltilex scintillator sheets were melted on to filters using a Microsealer (Wallac, Finland) and the filters were counted in a β-Liquid Scintillation Counter (1450 Microbeta, Wallac, Finland).
The Ki value for the unlabeled ligand was calculated using the Cheng-Prusoff equation (Biochem. Pharmacol. 22:3099-3108, 1973), where L is the concentration of the radioactive ligand used and Kd is the affinity of the radioactive ligand for the receptor, determined by saturation binding. […]

The structures appear in SMILES notation. Where two headings read alike, the source gives them in different places.

T1 sequence (Q5DUB1 whole entry): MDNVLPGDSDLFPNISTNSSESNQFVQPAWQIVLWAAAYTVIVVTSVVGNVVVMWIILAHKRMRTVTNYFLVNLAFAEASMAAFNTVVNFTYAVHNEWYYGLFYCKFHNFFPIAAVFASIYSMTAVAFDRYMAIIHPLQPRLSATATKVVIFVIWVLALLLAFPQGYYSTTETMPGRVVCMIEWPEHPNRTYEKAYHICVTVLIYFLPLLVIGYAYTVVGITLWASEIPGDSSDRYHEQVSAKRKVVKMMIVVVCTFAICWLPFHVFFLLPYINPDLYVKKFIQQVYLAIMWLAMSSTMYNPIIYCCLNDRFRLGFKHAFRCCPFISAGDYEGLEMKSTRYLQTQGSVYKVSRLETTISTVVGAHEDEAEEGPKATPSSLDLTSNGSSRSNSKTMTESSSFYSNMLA
T2 sequence (P14600 whole entry): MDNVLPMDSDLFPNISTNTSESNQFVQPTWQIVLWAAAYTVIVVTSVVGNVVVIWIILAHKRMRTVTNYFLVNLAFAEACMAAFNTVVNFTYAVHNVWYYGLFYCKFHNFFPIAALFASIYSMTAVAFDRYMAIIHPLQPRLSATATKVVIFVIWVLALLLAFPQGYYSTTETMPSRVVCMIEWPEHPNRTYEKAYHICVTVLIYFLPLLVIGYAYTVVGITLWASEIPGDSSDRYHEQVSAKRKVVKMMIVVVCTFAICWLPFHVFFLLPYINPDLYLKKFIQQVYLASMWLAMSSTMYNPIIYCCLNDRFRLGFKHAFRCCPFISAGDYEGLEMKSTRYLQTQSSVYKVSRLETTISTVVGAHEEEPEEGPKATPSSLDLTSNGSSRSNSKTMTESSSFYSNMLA
T3 sequence (P25103 whole entry): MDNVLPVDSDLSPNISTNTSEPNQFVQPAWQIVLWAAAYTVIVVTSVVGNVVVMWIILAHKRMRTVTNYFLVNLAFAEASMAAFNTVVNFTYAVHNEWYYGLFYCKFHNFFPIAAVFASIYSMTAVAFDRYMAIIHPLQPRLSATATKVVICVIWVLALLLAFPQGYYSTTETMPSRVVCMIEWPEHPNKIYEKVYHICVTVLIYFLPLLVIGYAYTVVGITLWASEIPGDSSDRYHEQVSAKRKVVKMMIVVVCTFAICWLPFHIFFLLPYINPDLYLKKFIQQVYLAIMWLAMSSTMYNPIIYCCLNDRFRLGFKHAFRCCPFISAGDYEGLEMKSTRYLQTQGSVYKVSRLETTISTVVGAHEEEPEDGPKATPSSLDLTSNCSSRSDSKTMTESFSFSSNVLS

In the case of `CN(C[C@@H](CCN1CCC(c2ccccc2[S@+](C)[O-])CC1)c1ccc(Cl)c(Cl)c1)C(=O)c1cc(C#N)cc2ccccc12` [ZD 6021], the “gerbil NK1r pKB” value on gerbil NK1r [1] is listed as 9.00 ± 0.25. The Ki at gerbil NK1r [2] (read-out: Gerbil NK1 Ki, competition binding, CHO cell membranes) was 0.38 nM; at human NK1r [5], 0.31 nM. Moreover, on rat NK1r, the “rat NK1r pKB” value is under 6. At human NK1r [3], the “human NK1r pKB” value was 8.53 ± 0.41. The “gerbil NK1r pKBapp. (in vivo GFT apparent pKB)” value on gerbil NK1r [4] stood at 8.5.

For `COc1ccccc1CN[C@H]1CCCN[C@H]1c1ccccc1` [CP 99994], the figures for the Kb on gerbil NK1r [1] and at rat NK1r were 1.15 nM and 1230 nM, respectively. The affinity on gerbil NK1r [2] corresponds to a Ki of 0.81 nM. In addition, the “gerbil NK1r pKBapp. (in vivo GFT apparent pKB)” value on gerbil NK1r [4] was determined as 8.1.

Consider `C[C@@H](O[C@H]1OCCN(Cc2n[nH]c(=O)[nH]2)[C@H]1c1ccc(F)cc1)c1cc(C(F)(F)F)cc(C(F)(F)F)c1` [MK 869, aprepitant], for which the Kb is 1.55 nM at gerbil NK1r [1] and 55 nM on rat NK1r. At gerbil NK1r [2], this molecule displayed a Ki of 0.16 nM. Further, the “gerbil NK1r pKBapp. (in vivo GFT apparent pKB)” value on gerbil NK1r [4] is given as 8.9.

The term Ki denotes a dissociation constant, usually derived from enzyme kinetics or from competition with a known ligand.
